# Assay results: patent US8778881B2 (priority 2004, dated 2014)
# Numbered stars: 1 amine (or outer) side, 2 acyl side, 3 side chain; on linkers, the order of the positions; unused ones are H or OH. Bridge positions count the residues as written; N and C are the ends. Square brackets hold non-standard residues; d marks the D form. Peptide text beside a SMILES is read from it. * marks the point of attachment. Ala(4-thiazolyl) = N[C@@H](Cc1cscn1)C(=O)O; Ala(2-furyl) = N[C@@H](Cc1ccco1)C(=O)O; Orn(iPr) = CC(C)NCCC[C@H](N)C(=O)O; X1 = CCNCCC[C@H](N[*:1])C(=O)[*:2]; Dab(iPr) = CC(C)NCC[C@H](N)C(=O)O; 3Pal = N[C@@H](Cc1cccnc1)C(=O)O; 4Pal = N[C@@H](Cc1ccncc1)C(=O)O; 2Thi = N[C@@H](Cc1cccs1)C(=O)O; Aad = N[C@@H](CCCC(=O)O)C(=O)O; NHCH(CH2OH)2 = OCC(CO)N*; Orn = NCCC[C@H](N)C(=O)O; Dab = NCC[C@H](N)C(=O)O; NHiBu = CC(C)CN*; NHOH = ON*
# Biological target: T1, human oxytocin (hOT) receptor (Homo sapiens, UniProt P30559)
# T1 construct: expressed in transfected cells
# T1 sequence (P30559 1-389): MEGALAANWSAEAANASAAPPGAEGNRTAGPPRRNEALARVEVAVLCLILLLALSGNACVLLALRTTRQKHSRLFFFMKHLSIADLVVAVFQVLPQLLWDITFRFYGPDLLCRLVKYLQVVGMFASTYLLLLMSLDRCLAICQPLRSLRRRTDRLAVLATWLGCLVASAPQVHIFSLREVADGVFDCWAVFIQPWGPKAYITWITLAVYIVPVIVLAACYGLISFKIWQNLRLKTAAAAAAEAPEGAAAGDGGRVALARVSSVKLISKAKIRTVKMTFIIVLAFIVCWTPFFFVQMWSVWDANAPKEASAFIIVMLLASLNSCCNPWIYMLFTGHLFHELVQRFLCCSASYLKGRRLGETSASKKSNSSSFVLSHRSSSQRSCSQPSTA
# Experiment: luciferase-based transcriptional reporter assay expressing the human oxytocin (hOT) receptor, for selectivity
# Assay type: cell-based
# Conditions: not given
# Method: Agonist activity of compounds on the hV1a receptor was determined in a transcriptional reporter assay by transiently transfecting a hV1a receptor expression DNA into HEK-293 cells in concert with a reporter DNA containing intracellular calcium responsive promoter elements regulating expression of firefly luciferase. See Boss, V., Talpade, D. J., Murphy, T. J. J. Biol. Chem. 1996, May 3; 271(18), 10429-10432 for further guidance on this assay. […] To determine selectivity, compounds were tested in luciferase-based transcriptional reporter assays expressing the human oxytocin (hOT) receptor. Assays for other receptors (hV2, hV1b, rat V1a and rat V2) were also conducted.
# The EC50 value given is the geometric mean expressed in nanomol/L (nM). Selectivity values are given as EC50 ratios.
row,SMILES,selectivity hOT/hV1a (class symbol)
1,CC[C@H](C)[C@@H]1NC(=O)[C@H](Cc2ccncc2)NC(=O)[C@@H](N)CSSC[C@@H](C(=O)N2CCC[C@H]2C(=O)N[C@@H](CCN)C(=O)NCC(N)=O)NC(=O)[C@H](CC(N)=O)NC(=O)[C@H](CCC(N)=O)NC1=O [Compound 12] (H-C[4Pal]IQNCP[Dab]G-NH2; disulfide 1-6),+ (key: +: selective hV1a receptor agonist; EC50 hOT/hV1a ratio not determined due to very low agonist efficacy (<30% compared to AVP) at the hOT receptor)
2,CC[C@H](C)[C@@H]1NC(=O)[C@H](Cc2ccco2)NC(=O)[C@@H](N)CSSC[C@@H](C(=O)N2CCC[C@H]2C(=O)N[C@@H](CCCNC(C)C)C(=O)NCC(N)=O)NC(=O)[C@H](CC(N)=O)NC(=O)[C@H](CC(N)=O)NC1=O [Compound 42] (H-C[Ala(2-furyl)]INNCP[Orn(iPr)]G-NH2; disulfide 1-6),+ (key: +: selective hV1a receptor agonist; EC50 hOT/hV1a ratio not determined due to very low agonist efficacy (<30% compared to AVP) at the hOT receptor)
3,CC[C@H](C)[C@@H]1NC(=O)[C@H](Cc2ccccc2)NC(=O)[C@@H](N)CSSC[C@@H](C(=O)N2CCC[C@H]2C(=O)N[C@@H](CCN)C(=O)NCC(N)=O)NC(=O)[C@H](CC(N)=O)NC(=O)[C@H](CCCC(N)=O)NC1=O [Compound 11] (H-CFI[Aad](NH2)NCP[Dab]G-NH2; disulfide 1-6),+ (key: +: selective hV1a receptor agonist; EC50 hOT/hV1a ratio not determined due to very low agonist efficacy (<30% compared to AVP) at the hOT receptor)

# Same assay, conditions: agonist efficacy at the hOT receptor compared to AVP; ratio not determined
row,SMILES,selectivity hOT/hV1a (class symbol)
1,CC[C@H](C)[C@@H]1NC(=O)[C@H](Cc2ccccc2)NC(=O)[C@@H](N)CSSC[C@@H](C(=O)N2CCC[C@H]2C(=O)N[C@@H](CCCN)C(=O)NCC(N)=O)NC(=O)[C@H](CC(N)=O)NC(=O)[C@H](CCC(=O)NCC(C)C)NC1=O [Compound 21] (H-CFIE(NHiBu)NCP[Orn]G-NH2; disulfide 1-6; N-terminus and C-terminus assumed),+ (selective hV1a receptor agonist; EC50 hOT/hV1a ratio not determined due to very low agonist efficacy (<30% compared to AVP) at the hOT receptor)
2,CC[C@H](C)[C@@H]1NC(=O)[C@H](Cc2ccco2)NC(=O)[C@@H](N)CSSC[C@@H](C(=O)N2CCC[C@H]2C(=O)N[C@@H](CCN)C(=O)NCC(N)=O)NC(=O)[C@H](CC(N)=O)NC(=O)[C@H](CC(N)=O)NC1=O [Compound 44] (H-C[Ala(2-furyl)]INNCP[Dab]G-NH2; disulfide 1-6; N-terminus and C-terminus assumed),+ (selective hV1a receptor agonist; EC50 hOT/hV1a ratio not determined due to very low agonist efficacy (<30% compared to AVP) at the hOT receptor)
3,CC[C@H](C)[C@@H]1NC(=O)[C@H](Cc2ccccc2)NC(=O)[C@@H](N)CSSC[C@@H](C(=O)N2CCC[C@H]2C(=O)N[C@@H](CCN)C(=O)NCC(N)=O)NC(=O)[C@H](CC(N)=O)NC(=O)[C@H](CC(=O)NC)NC1=O [Compound 31] (H-CFID(NHMe)NCP[Dab]G-NH2; disulfide 1-6; N-terminus and C-terminus assumed),+ (selective hV1a receptor agonist; EC50 hOT/hV1a ratio not determined due to very low agonist efficacy (<30% compared to AVP) at the hOT receptor)
4,CC[C@H](C)[C@@H]1NC(=O)[C@H](Cc2ccccc2)NC(=O)[C@@H](N)CSSC[C@@H](C(=O)N2CCC[C@H]2C(=O)N[C@@H](CCCN)C(=O)NCC(N)=O)NC(=O)[C@H](CC(N)=O)NC(=O)[C@H](CC(=O)NC)NC1=O [Compound 49] (H-CFID(NHMe)NCP[Orn]G-NH2; disulfide 1-6; N-terminus and C-terminus assumed),+ (selective hV1a receptor agonist; EC50 hOT/hV1a ratio not determined due to very low agonist efficacy (<30% compared to AVP) at the hOT receptor)
5,CCNC(=O)CC[C@@H]1NC(=O)[C@H]([C@@H](C)CC)NC(=O)[C@H](Cc2ccccc2)NC(=O)[C@@H](N)CSSC[C@@H](C(=O)N2CCC[C@H]2C(=O)N[C@@H](CCCN)C(=O)NCC(N)=O)NC(=O)[C@H](CC(N)=O)NC1=O [Compound 20] (H-CFIE(NHEt)NCP[Orn]G-NH2; disulfide 1-6; N-terminus and C-terminus assumed),+ (selective hV1a receptor agonist; EC50 hOT/hV1a ratio not determined due to very low agonist efficacy (<30% compared to AVP) at the hOT receptor)
6,"NCCCC[C@H](NC(=O)[C@@H]1CCCN1C(=O)[C@@H]1CSSC[C@H](NC(=O)CNC(=O)CNC(=O)CN)C(=O)N[C@@H](Cc2ccc(O)cc2)C(=O)N[C@@H](Cc2ccccc2)C(=O)N[C@@H](CCC(N)=O)C(=O)N[C@@H](CC(N)=O)C(=O)N1)C(=O)NCC(N)=O [terlipressin, reference compound] (H-GGGCYFQNCPKG-NH2; disulfide 4-9)",+ (selective hV1a receptor agonist; EC50 hOT/hV1a ratio not determined due to very low agonist efficacy (<30% compared to AVP) at the hOT receptor)
7,CC[C@H](C)[C@@H]1NC(=O)[C@H](Cc2cscn2)NC(=O)[C@@H](N)CSSC[C@@H](C(=O)N2CCC[C@H]2C(=O)N[C@@H](CCN)C(=O)NCC(N)=O)NC(=O)[C@H](CC(N)=O)NC(=O)[C@H](CCC(N)=O)NC1=O [Compound 13] (H-C[Ala(4-thiazolyl)]IQNCP[Dab]G-NH2; disulfide 1-6; N-terminus and C-terminus assumed),+ (selective hV1a receptor agonist; EC50 hOT/hV1a ratio not determined due to very low agonist efficacy (<30% compared to AVP) at the hOT receptor)
8,CC[C@H](C)[C@@H]1NC(=O)[C@H](Cc2cccnc2)NC(=O)[C@@H](N)CSSC[C@@H](C(=O)N2CCC[C@H]2C(=O)N[C@@H](CCN)C(=O)NCC(N)=O)NC(=O)[C@H](CC(N)=O)NC(=O)[C@H](CCC(N)=O)NC1=O [Compound 18] (H-C[3Pal]IQNCP[Dab]G-NH2; disulfide 1-6; N-terminus and C-terminus assumed),+ (selective hV1a receptor agonist; EC50 hOT/hV1a ratio not determined due to very low agonist efficacy (<30% compared to AVP) at the hOT receptor)
9,CC[C@H](C)[C@@H]1NC(=O)[C@H](Cc2cccs2)NC(=O)[C@@H](N)CSSC[C@@H](C(=O)N2CCC[C@H]2C(=O)N[C@@H](CCCNC(C)C)C(=O)NCC(N)=O)NC(=O)[C@H](CC(N)=O)NC(=O)[C@H](CC(N)=O)NC1=O [Compound 43] (H-C[2Thi]INNCP[Orn(iPr)]G-NH2; disulfide 1-6; N-terminus and C-terminus assumed),+ (selective hV1a receptor agonist; EC50 hOT/hV1a ratio not determined due to very low agonist efficacy (<30% compared to AVP) at the hOT receptor)
10,CC[C@H](C)[C@@H]1NC(=O)[C@H](Cc2ccccc2)NC(=O)[C@@H](N)CSSC[C@@H](C(=O)N2CCC[C@H]2C(=O)N[C@@H](CCCN)C(=O)NCC(N)=O)NC(=O)[C@H](CC(N)=O)NC(=O)[C@H](CC(=O)NC(CO)CO)NC1=O [Compound 27] (H-CFID(NHCH(CH2OH)2)NCP[Orn]G-NH2; disulfide 1-6; N-terminus and C-terminus assumed),+ (selective hV1a receptor agonist; EC50 hOT/hV1a ratio not determined due to very low agonist efficacy (<30% compared to AVP) at the hOT receptor)
11,CCNCCC[C@H](NC(=O)[C@@H]1CCCN1C(=O)[C@@H]1CSSC[C@H](N)C(=O)N[C@@H](Cc2ccccc2)C(=O)N[C@@H]([C@@H](C)CC)C(=O)N[C@@H](CC(N)=O)C(=O)N[C@@H](CC(N)=O)C(=O)N1)C(=O)NCC(N)=O [Compound 47] (H-CFINNCP[X1]G-NH2; disulfide 1-6; N-terminus and C-terminus assumed),+ (selective hV1a receptor agonist; EC50 hOT/hV1a ratio not determined due to very low agonist efficacy (<30% compared to AVP) at the hOT receptor)
12,CC[C@H](C)[C@@H]1NC(=O)[C@H](Cc2cccs2)NC(=O)[C@@H](N)CSSC[C@@H](C(=O)N2CCC[C@H]2C(=O)N[C@@H](CCN)C(=O)NCC(N)=O)NC(=O)[C@H](CC(N)=O)NC(=O)[C@H](CC(N)=O)NC1=O [Compound 36] (H-C[2Thi]INNCP[Dab]G-NH2; disulfide 1-6; N-terminus and C-terminus assumed),+ (selective hV1a receptor agonist; EC50 hOT/hV1a ratio not determined due to very low agonist efficacy (<30% compared to AVP) at the hOT receptor)
13,CC[C@H](C)[C@@H]1NC(=O)[C@H](Cc2ccccc2)NC(=O)[C@@H](N)CSSC[C@@H](C(=O)N2CCC[C@H]2C(=O)N[C@@H](CCNC(C)C)C(=O)NCC(N)=O)NC(=O)[C@H](CC(N)=O)NC(=O)[C@H](CCCC(N)=O)NC1=O [Compound 22] (H-CFI[Aad](NH2)NCP[Dab(iPr)]G-NH2; disulfide 1-6; N-terminus and C-terminus assumed),+ (selective hV1a receptor agonist; EC50 hOT/hV1a ratio not determined due to very low agonist efficacy (<30% compared to AVP) at the hOT receptor)
14,CC[C@H](C)[C@@H]1NC(=O)[C@H](Cc2ccccc2)NC(=O)[C@@H](N)CSSC[C@@H](C(=O)N2CCC[C@H]2C(=O)N[C@@H](CCCN)C(=O)NCC(N)=O)NC(=O)[C@H](CC(N)=O)NC(=O)[C@H](CC(=O)NO)NC1=O [Compound 24] (H-CFID(NHOH)NCP[Orn]G-NH2; disulfide 1-6; N-terminus and C-terminus assumed),+ (selective hV1a receptor agonist; EC50 hOT/hV1a ratio not determined due to very low agonist efficacy (<30% compared to AVP) at the hOT receptor)
